Experimental data reported in patent publication US7192746B2, “α-Isomaltosyltransferase, process for producing the same and use thereof” (Kabushiki Kaisha Hayashibara Seibutsu Kagaku Kenkyujo, priority 2000, dated 2007).

Key:
Format in all cases: biochemical
[1] = test system: α-isomaltosyl-transferring enzyme from Arthrobacter globiformis A19; experiment: Action on saccharides (substrates, TLC); parameters: key: −: there was found no substrate change before and after the enzymatic reaction; +: there were found both the reduction of substrate and the formation of cyclotetrasaccharide after the enzymatic reaction; conditions: partially purified enzyme, 2 units/g substrate, 2% (w/v) substrate, 30° C., pH 6.0, 24 hours
Description: (§1) To examine the saccharides in the supernatant, they were separated from the supernatant by silica gel thin-layer chromatography (abbreviated as “TLC” hereinafter) using, as a developer, a mixture solution of n-butanol, pyridine, and water (=6:4:1), and, as a thin-layer plate, “[…] 60”, an aluminum plate (20×20 cm) for TLC commercialized by […]. The coloration of both the separated total sugars by the sulfuric acid-methanol method and the reducing saccharides by the diphenylamine-aniline method detected a non-reducing saccharide at a position with an Rf value of about 0.31, which was positive on the former detection method but negative on the latter detection method.
(§2) It was tested whether saccharides can be used as substrates for the α-isomaltosyl-transferring enzyme. For the purpose, a solution of maltose, maltotriose, maltotetraose, maltopentaose, maltohexaose, maltoheptaose, isomaltose, isomaltotriose, panose, isomaltosylmaltose, isopanose, α,α-trehalose, kojibiose, nigerose, α,β-trehalose, cellobiose, gentibiose, maltitol, maltotriitol, lactose, sucrose, α-cyclodextrin, β-cyclodextrin, γ-cyclodextrin, soluble starch, pullulan, or dextran was prepared. To each of the above solutions was added two units/g substrate of a purified specimen of either α-isomaltosyl-transferring enzyme from Bacillus globisporus C9 obtained by the method in Experiment 4, Bacillus globisporus C11 obtained by the method in Experiment 7, Bacillus globisporus N75 obtained by the method in Experiment 11, or Arthrobacter ramosus S1 obtained by the method in Experiment 15, or a partially purified α-isomaltosyl-transferring enzyme from Arthrobacter globiformis A19 obtained by the method in Experiment 15. The resulting each solution was adjusted to give a substrate concentration of 2% (w/v) and incubated at 30° C. and pH 6.0 for 24 hours. The enzyme solutions before and after the enzymatic reactions were respectively analyzed on TLC as disclosed in Experiment 1 to confirm whether the enzymes acted on these substrates.

[2] = test system: α-isomaltosyl-transferring enzyme from Arthrobacter ramosus S1; experiment: Action on saccharides (substrates, TLC); parameters: key: −: there was found no substrate change before and after the enzymatic reaction; +: there were found both the reduction of substrate and the formation of cyclotetrasaccharide after the enzymatic reaction; conditions: 2 units/g substrate, 2% (w/v) substrate, 30° C., pH 6.0, 24 hours
Description: as §1, §2

[3] = test system: α-isomaltosyl-transferring enzyme from Bacillus globisporus C11; experiment: Action on saccharides (substrates, TLC); parameters: key: −: there was found no substrate change before and after the enzymatic reaction; +: there were found both the reduction of substrate and the formation of cyclotetrasaccharide after the enzymatic reaction; conditions: 2 units/g substrate, 2% (w/v) substrate, 30° C., pH 6.0, 24 hours
Description: as §1, §2

[4] = test system: α-isomaltosyl-transferring enzyme from Bacillus globisporus C9; experiment: Action on saccharides (substrates, TLC); parameters: key: −: there was found no substrate change before and after the enzymatic reaction; +: there were found both the reduction of substrate and the formation of cyclotetrasaccharide after the enzymatic reaction; conditions: 2 units/g substrate, 2% (w/v) substrate, 30° C., pH 6.0, 24 hours
Description: as §1, §2

[5] = test system: α-isomaltosyl-transferring enzyme from Bacillus globisporus N75; experiment: Action on saccharides (substrates, TLC); parameters: key: −: there was found no substrate change before and after the enzymatic reaction; +: there were found both the reduction of substrate and the formation of cyclotetrasaccharide after the enzymatic reaction; conditions: 2 units/g substrate, 2% (w/v) substrate, 30° C., pH 6.0, 24 hours
Description: as §1, §2

[6] = test system: α-isomaltosyl-transferring enzyme from Arthrobacter globiformis A19; experiment: Specificity to transferring acceptor; parameters: key: −: no saccharide transferred product was formed; ±: a saccharide-transferred product formed in an amount of less than one percent to the total sugars; +: a saccharide-transferred product was formed in an amount of over one percent but below 10% to the total sugars; ++: a saccharide-transferred product was formed in an amount of over 10% to the total sugars; conditions: partially purified enzyme, panose as saccharide donor, 10 units/g substrate, 3.2% (w/v), 30° C., pH 6.0, 24 hours
In short: (§3)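 Panose donor + test saccharide (equimolar-equal conc.), 3.2% (w/v) total, 10 units/g substrate enzyme; 30° C., pH 6.0, 24 h. GLC (FID) for mono/disaccharide acceptors, HPLC (RI) for tri- and larger. Scored +/−.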

[7] = test system: α-isomaltosyl-transferring enzyme from Arthrobacter ramosus S1; experiment: Specificity to transferring acceptor; parameters: key: −: no saccharide transferred product was formed; ±: a saccharide-transferred product formed in an amount of less than one percent to the total sugars; +: a saccharide-transferred product was formed in an amount of over one percent but below 10% to the total sugars; ++: a saccharide-transferred product was formed in an amount of over 10% to the total sugars; conditions: panose as saccharide donor, 10 units/g substrate, 3.2% (w/v), 30° C., pH 6.0, 24 hours
In short: as §3

[8] = test system: α-isomaltosyl-transferring enzyme from Bacillus globisporus C11; experiment: Specificity to transferring acceptor; parameters: key: −: no saccharide transferred product was formed; ±: a saccharide-transferred product formed in an amount of less than one percent to the total sugars; +: a saccharide-transferred product was formed in an amount of over one percent but below 10% to the total sugars; ++: a saccharide-transferred product was formed in an amount of over 10% to the total sugars; conditions: panose as saccharide donor, 10 units/g substrate, 3.2% (w/v), 30° C., pH 6.0, 24 hours
In short: as §3

[9] = test system: α-isomaltosyl-transferring enzyme from Bacillus globisporus C9; experiment: Specificity to transferring acceptor; parameters: key: −: no saccharide transferred product was formed; ±: a saccharide-transferred product formed in an amount of less than one percent to the total sugars; +: a saccharide-transferred product was formed in an amount of over one percent but below 10% to the total sugars; ++: a saccharide-transferred product was formed in an amount of over 10% to the total sugars; conditions: panose as saccharide donor, 10 units/g substrate, 3.2% (w/v), 30° C., pH 6.0, 24 hours
In short: as §3

[10] = test system: α-isomaltosyl-transferring enzyme from Bacillus globisporus N75; experiment: Specificity to transferring acceptor; parameters: key: −: no saccharide transferred product was formed; ±: a saccharide-transferred product formed in an amount of less than one percent to the total sugars; +: a saccharide-transferred product was formed in an amount of over one percent but below 10% to the total sugars; ++: a saccharide-transferred product was formed in an amount of over 10% to the total sugars; conditions: panose as saccharide donor, 10 units/g substrate, 3.2% (w/v), 30° C., pH 6.0, 24 hours
In short: as §3

## O=C[C@H](O)[C@@H](O)[C@H](O[C@@H]1O[C@H](CO)[C@@H](O)[C@H](O)[C@H]1O)[C@H](O)CO [Cellobiose, cellobiose]
[1]
  Enzymatic action for forming cyclotetrasaccharide, Enzyme of Strain A19: −
[2]
  Enzymatic action for forming cyclotetrasaccharide, Enzyme of Strain S1: −
[3]
  Enzymatic action for forming cyclotetrasaccharide, Enzyme of Strain C11: −
[4]
  Enzymatic action for forming cyclotetrasaccharide, Enzyme of Strain C9: −
[5]
  Enzymatic action for forming cyclotetrasaccharide, Enzyme of Strain N75: −
[6]
  Product of transferring reaction, Enzyme of Stain A19: + (a saccharide-transferred product was formed in an amount of over one percent but below 10% to the total sugars)
[7]
  Product of transferring reaction, Enzyme of Strain S1: + (a saccharide-transferred product was formed in an amount of over one percent but below 10% to the total sugars)
[8]
  Product of transferring reaction, Enzyme of Strain C11: + (a saccharide-transferred product was formed in an amount of over one percent but below 10% to the total sugars)
[9]
  Product of transferring reaction, Enzyme of Strain C9: + (a saccharide-transferred product was formed in an amount of over one percent but below 10% to the total sugars)
[10]
  Product of transferring reaction, Enzyme of Strain N75: + (a saccharide-transferred product was formed in an amount of over one percent but below 10% to the total sugars)

## maltopentaose
[1]
  Enzymatic action for forming cyclotetrasaccharide, Enzyme of Strain A19: −
[2]
  Enzymatic action for forming cyclotetrasaccharide, Enzyme of Strain S1: −
[3]
  Enzymatic action for forming cyclotetrasaccharide, Enzyme of Strain C11: −
[4]
  Enzymatic action for forming cyclotetrasaccharide, Enzyme of Strain C9: −
[5]
  Enzymatic action for forming cyclotetrasaccharide, Enzyme of Strain N75: −
[6]
  Product of transferring reaction, Enzyme of Stain A19: + (a saccharide-transferred product was formed in an amount of over one percent but below 10% to the total sugars)
[7]
  Product of transferring reaction, Enzyme of Strain S1: ± (a saccharide-transferred product formed in an amount of less than one percent to the total sugars)
[8]
  Product of transferring reaction, Enzyme of Strain C11: + (a saccharide-transferred product was formed in an amount of over one percent but below 10% to the total sugars)
[9]
  Product of transferring reaction, Enzyme of Strain C9: + (a saccharide-transferred product was formed in an amount of over one percent but below 10% to the total sugars)
[10]
  Product of transferring reaction, Enzyme of Strain N75: ± (a saccharide-transferred product formed in an amount of less than one percent to the total sugars)

## OC[C@H]1O[C@H](OC[C@H]2O[C@H](O[C@H]3[C@H](O)[C@@H](O)[C@@H](O[C@H]4[C@H](O)[C@@H](O)C(O)O[C@@H]4CO)O[C@@H]3CO)[C@H](O)[C@@H](O)[C@@H]2O)[C@H](O)[C@@H](O)[C@@H]1O (some centres unmarked) [Isomaltosylmaltose, isomaltosylmaltose]
[1]
  Enzymatic action for forming cyclotetrasaccharide, Enzyme of Strain A19: +
[2]
  Enzymatic action for forming cyclotetrasaccharide, Enzyme of Strain S1: +
[3]
  Enzymatic action for forming cyclotetrasaccharide, Enzyme of Strain C11: +
[4]
  Enzymatic action for forming cyclotetrasaccharide, Enzyme of Strain C9: +
[5]
  Enzymatic action for forming cyclotetrasaccharide, Enzyme of Strain N75: +

## OC[C@H]1O[C@@H]2O[C@H]3[C@H](O)[C@@H](O)[C@@H](O[C@H]4[C@H](O)[C@@H](O)[C@@H](O[C@H]5[C@H](O)[C@@H](O)[C@@H](O[C@H]6[C@H](O)[C@@H](O)[C@@H](O[C@H]7[C@H](O)[C@@H](O)[C@@H](O[C@H]1[C@H](O)[C@H]2O)O[C@@H]7CO)O[C@@H]6CO)O[C@@H]5CO)O[C@@H]4CO)O[C@@H]3CO [α-Cyclodextrin, α-cyclodextrin]
[1]
  Enzymatic action for forming cyclotetrasaccharide, Enzyme of Strain A19: −
[2]
  Enzymatic action for forming cyclotetrasaccharide, Enzyme of Strain S1: −
[3]
  Enzymatic action for forming cyclotetrasaccharide, Enzyme of Strain C11: −
[4]
  Enzymatic action for forming cyclotetrasaccharide, Enzyme of Strain C9: −
[5]
  Enzymatic action for forming cyclotetrasaccharide, Enzyme of Strain N75: −
[6]
  Product of transferring reaction, Enzyme of Stain A19: −
[7]
  Product of transferring reaction, Enzyme of Strain S1: −
[8]
  Product of transferring reaction, Enzyme of Strain C11: −
[9]
  Product of transferring reaction, Enzyme of Strain C9: −
[10]
  Product of transferring reaction, Enzyme of Strain N75: −

## OC[C@H]1O[C@H](OC[C@H]2O[C@H](O[C@H]3[C@H](O)[C@@H](O)C(O)O[C@@H]3CO)[C@H](O)[C@@H](O)[C@@H]2O)[C@H](O)[C@@H](O)[C@@H]1O (some centres unmarked) [Panose, panose]
[1]
  Enzymatic action for forming cyclotetrasaccharide, Enzyme of Strain A19: +
[2]
  Enzymatic action for forming cyclotetrasaccharide, Enzyme of Strain S1: +
[3]
  Enzymatic action for forming cyclotetrasaccharide, Enzyme of Strain C11: +
[4]
  Enzymatic action for forming cyclotetrasaccharide, Enzyme of Strain C9: +
[5]
  Enzymatic action for forming cyclotetrasaccharide, Enzyme of Strain N75: +

## maltohexaose
[1]
  Enzymatic action for forming cyclotetrasaccharide, Enzyme of Strain A19: −
[2]
  Enzymatic action for forming cyclotetrasaccharide, Enzyme of Strain S1: −
[3]
  Enzymatic action for forming cyclotetrasaccharide, Enzyme of Strain C11: −
[4]
  Enzymatic action for forming cyclotetrasaccharide, Enzyme of Strain C9: −
[5]
  Enzymatic action for forming cyclotetrasaccharide, Enzyme of Strain N75: −

## maltoheptaose
[1]
  Enzymatic action for forming cyclotetrasaccharide, Enzyme of Strain A19: −
[2]
  Enzymatic action for forming cyclotetrasaccharide, Enzyme of Strain S1: −
[3]
  Enzymatic action for forming cyclotetrasaccharide, Enzyme of Strain C11: −
[4]
  Enzymatic action for forming cyclotetrasaccharide, Enzyme of Strain C9: −
[5]
  Enzymatic action for forming cyclotetrasaccharide, Enzyme of Strain N75: −
